The assay deals with monocistronic NK5.1 HCV replicon in Huh7 cells. As to the kind of experiment: HCV replicon assay, monocistronic replicon cell line. It counts as cell-based, hepatitis C virus. The settings on record: Hepatitis C virus, Huh-7; monocistronic NK5.1 HCV replicon in Huh7 cells; median value; read-out: Mono EC50 Median. In outline:
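Huh7 cells carrying the monocistronic NK5.1 replicon, seeded 24 h before dosing, were exposed to six-point half-log compound series (0.6% DMSO) for 3 days at 37 °C. Replicon RNA was quantified by TaqMan RT-PCR, normalised to GAPDH and compared with DMSO controls to derive EC50.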
(Replicon systems follow genome replication, usually without infectious particles.)

By EC50 is commonly meant the concentration that produces a half-maximal response. With `Cc1ccccc1-c1nnc(-c2ncccc2C(F)(F)F)o1` [Compound 340, 2-(5-o-Tolyl-[1,3,4]oxadiazol-2-yl)-3-trifluoromethyl-pyridine], the concentration for a half-maximal effect (EC50) is > 32 µM.

For `Cc1ccccc1-c1nnc(-c2ncc(C(F)(F)F)cc2Cl)o1` [Compound 341, 3-Chloro-2-(5-o-tolyl-[1,3,4]oxadiazol-2-yl)-5-trifluoromethyl-pyridine], the EC50 was 20 µM.

For `Oc1ccccc1-c1nnc(-c2ncccc2C(F)(F)F)o1` [Compound 342, 2-[5-(3-Trifluoromethyl-pyridin-2-yl)-[1,3,4]oxadiazol-2-yl]-phenol], the 50% effective concentration (EC50) was > 32 µM.

Turning to `Oc1ccccc1-c1nnc(-c2ncc(C(F)(F)F)cc2Cl)o1` [Compound 343, 2-[5-(3-Chloro-5-trifluoromethyl-pyridin-2-yl)-[1,3,4]oxadiazol-2-yl]-phenol], the 50% effective concentration (EC50) was found to be 17 µM.

With `COc1ccccc1-c1nnc(-c2ccccn2)o1` [Compound 344, 2-[5-(2-Methoxy-phenyl)-[1,3,4]oxadiazol-2-yl]-pyridine], the concentration for a half-maximal effect (EC50) was > 32 µM.

Take `COc1ccccc1-c1nnc(-c2ncccc2C(F)(F)F)o1` [Compound 345]: the EC50 stood at 8.3 µM.

For `COc1ccccc1-c1nnc(-c2ncc(C(F)(F)F)cc2Cl)o1` [Compound 346, 3-Chloro-2-[5-(2-methoxy-phenyl)-[1,3,4]oxadiazol-2-yl]-5-trifluoromethyl-pyridine], the EC50 is > 32 µM.

Consider `Fc1ccccc1-c1nnc(-c2ccccn2)o1` [Compound 347, 2-[5-(2-Fluoro-phenyl)-[1,3,4]oxadiazol-2-yl]-pyridine], for which the EC50 was > 32 µM.

Regarding `Fc1ccccc1-c1nnc(-c2ncccc2C(F)(F)F)o1` [Compound 348, 2-[5-(2-Fluoro-phenyl)-[1,3,4]oxadiazol-2-yl]-3-trifluoromethyl-pyridine], the EC50 was > 32 µM.

For the molecule `Fc1ccccc1-c1nnc(-c2ncc(C(F)(F)F)cc2Cl)o1` [Compound 349, 3-Chloro-2-[5-(2-fluoro-phenyl)-[1,3,4]oxadiazol-2-yl]-5-trifluoromethyl-pyridine], the EC50 was > 32 µM.

As for `c1ccc(-c2n[nH]c(-c3cccc4ccccc34)n2)nc1` [Compound 350, 2-(5-Naphthalen-1-yl-1H-[1,2,4]triazol-3-yl)-pyridine], the EC50 is > 19 µM.

As to `CC(C)(C)c1ccc(O)c(-c2nc(-c3ccccn3)n[nH]2)c1` [Compound 351, 4-tert-Butyl-2-(5-pyridin-2-yl-2H-[1,2,4]triazol-3-yl)-phenol], the EC50 stood at 8.6 µM.

For `O=[N+]([O-])c1ccc(O)c(-c2nc(-c3ccccn3)n[nH]2)c1` [Compound 352, 4-Nitro-2-(5-pyridin-2-yl-2H-[1,2,4]triazol-3-yl)-phenol], the concentration giving a half-maximal response (EC50) stood at 14 µM.

Turning to `Oc1ccc(F)cc1-c1nc(-c2ccccn2)n[nH]1` [Compound 353, 4-Fluoro-2-(5-pyridin-2-yl-2H-[1,2,4]triazol-3-yl)-phenol], the EC50 was found to be 7.1 µM.

On to `Oc1ccc(Cl)cc1-c1nc(-c2ccccn2)n[nH]1` [Compound 354, 4-Chloro-2-(5-pyridin-2-yl-2H-[1,2,4]triazol-3-yl)-phenol], for which the EC50 came out at 4.8 µM.

As to `CCOc1cccc(-c2nc(-c3ccccn3)n[nH]2)c1O` [Compound 355, 6-Ethoxy-2-(5-pyridin-2-yl-2H-[1,2,4]triazol-3-yl)-phenol], the EC50 was > 19 µM.

Take `Oc1cc(OCc2ccccc2)ccc1-c1nc(-c2ccccn2)n[nH]1` [Compound 356, 5-Benzyloxy-2-(5-pyridin-2-yl-2H-[1,2,4]triazol-3-yl)-phenol]: the EC50 was > 19 µM.

In the case of `Fc1cc(-c2nc(-c3ccccn3)n[nH]2)ccc1-c1ccccc1` [Compound 357, 2-[5-(2-Fluoro-biphenyl-4-yl)-1H-[1,2,4]triazol-3-yl]-pyridine], the concentration for a half-maximal effect (EC50) was found to be 7.1 µM.

With `Oc1ccc(Br)cc1-c1nc(-c2ccccn2)n[nH]1` [Compound 358, 4-Bromo-2-(5-pyridin-2-yl-2H-[1,2,4]triazol-3-yl)-phenol], the 50% effective concentration (EC50) came out at 4.3 µM.

For the molecule `Cc1ccc(O)c(-c2nc(-c3ccccn3)n[nH]2)c1` [Compound 359, 4-Methyl-2-(5-pyridin-2-yl-2H-[1,2,4]triazol-3-yl)-phenol], the concentration giving a half-maximal response (EC50) is > 19 µM.

In the case of `COc1ccc(O)c(-c2nc(-c3ccccn3)n[nH]2)c1` [Compound 360, 4-Methoxy-2-(5-pyridin-2-yl-2H-[1,2,4]triazol-3-yl)-phenol], the EC50 amounted to 5.4 µM.

Take `Oc1ccccc1-c1nc(-c2ccccn2)n[nH]1` [Compound 361, 2-(5-pyridin-2-yl-2H-[1,2,4]triazol-3-yl)-phenol]: the EC50 was > 19 µM.

Consider `COc1cccc(-c2nc(-c3ccccn3)n[nH]2)c1O` [Compound 362, 6-Methoxy-2-(5-pyridin-2-yl-2H-[1,2,4]triazol-3-yl)-phenol], for which the EC50 is > 19 µM.

With `COc1ccc(-c2nc(-c3ccccn3)n[nH]2)c(O)c1` [Compound 363, 5-Methoxy-2-(5-pyridin-2-yl-2H-[1,2,4]triazol-3-yl)-phenol], the EC50 is > 19 µM.

As for `O=[N+]([O-])c1cccc(-c2nc(-c3ccccn3)n[nH]2)c1` [Compound 364, 2-[5-(3-Nitro-phenyl)-1H-[1,2,4]triazol-3-yl]-pyridine], the EC50 is > 32 µM.

Turning to `CCN(CC)c1ccc(-c2nc(-c3ccccn3)n[nH]2)c(O)c1` [Compound 365, 5-Diethylamino-2-(5-pyridin-2-yl-2H-[1,2,4]triazol-3-yl)-phenol], the EC50 is > 32 µM.

With `c1ccc2c(-c3nc(-c4nccc5ccccc45)n[nH]3)cccc2c1` [Compound 366, 1-(5-Naphthalen-1-yl-1H-[1,2,4]triazol-3-yl)-isoquinoline], the EC50 was > 32 µM.

For `CC(C)(C)c1ccc(O)c(-c2nc(-c3nccc4ccccc34)n[nH]2)c1` [Compound 367, 4-tert-Butyl-2-(5-isoquinolin-1-yl-2H-[1,2,4]triazol-3-yl)-phenol], the EC50 was > 32 µM.

With `O=[N+]([O-])c1ccc(O)c(-c2nc(-c3nccc4ccccc34)n[nH]2)c1` [Compound 368, 4-Nitro-2-(5-isoquinolin-1-yl-2H-[1,2,4]triazol-3-yl)-phenol], the 50% effective concentration (EC50) is > 32 µM.

Consider `Oc1ccc(F)cc1-c1nc(-c2nccc3ccccc23)n[nH]1` [Compound 369, 4-Fluoro-2-(5-isoquinolin-1-yl-2H-[1,2,4]triazol-3-yl)-phenol], for which the 50% effective concentration (EC50) is 3.5 µM.

Consider `COc1ccc(O)c(-c2nc(-c3nccc4ccccc34)n[nH]2)c1` [Compound 370, 4-Methoxy-2-(5-isoquinolin-1-yl-2H-[1,2,4]triazol-3-yl)-phenol], for which the EC50 stood at 2.9 µM.

Turning to `Oc1ccc(Cl)cc1-c1nc(-c2nccc3ccccc23)n[nH]1` [Compound 371, 4-Chloro-2-(5-isoquinolin-1-yl-2H-[1,2,4]triazol-3-yl)-phenol], the EC50 is > 19 µM.

Take `CCOc1cccc(-c2nc(-c3nccc4ccccc34)n[nH]2)c1O` [Compound 372, 6-Ethoxy-2-(5-isoquinolin-1-yl-2H-[1,2,4]triazol-3-yl)-phenol]: the 50% effective concentration (EC50) was > 19 µM.

Consider `Oc1cc(OCc2ccccc2)ccc1-c1nc(-c2nccc3ccccc23)n[nH]1` [Compound 373, 5-Benzyloxy-2-(5-isoquinolin-1-yl-2H-[1,2,4]triazol-3-yl)-phenol], for which the 50% effective concentration (EC50) is > 19 µM.

As for `Oc1ccc(Br)cc1-c1nc(-c2nccc3ccccc23)n[nH]1` [Compound 374, 4-Bromo-2-(5-isoquinolin-1-yl-2H-[1,2,4]triazol-3-yl)-phenol], the concentration for a half-maximal effect (EC50) was > 19 µM.

In the case of `Cc1ccc(O)c(-c2nc(-c3nccc4ccccc34)n[nH]2)c1` [Compound 375, 4-Methyl-2-(5-isoquinolin-1-yl-2H-[1,2,4]triazol-3-yl)-phenol], the EC50 is > 19 µM.

For the molecule `COc1ccc(-c2nc(-c3nccc4ccccc34)n[nH]2)c(O)c1` [Compound 376, 5-Methoxy-2-(5-isoquinolin-1-yl-2H-[1,2,4]triazol-3-yl)-phenol], the EC50 is > 19 µM.

As to `Oc1ccccc1-c1nc(-c2nccc3ccccc23)n[nH]1` [Compound 377, 2-(5-isoquinolin-1-yl-2H-[1,2,4]triazol-3-yl)-phenol], the EC50 is > 19 µM.

In the case of `COc1cccc(-c2nc(-c3nccc4ccccc34)n[nH]2)c1O` [Compound 378, 6-Methoxy-2-(5-isoquinolin-1-yl-2H-[1,2,4]triazol-3-yl)-phenol], the half-maximal effective concentration (EC50) is 16 µM.

`O=[N+]([O-])c1cccc(-c2nc(-c3nccc4ccccc34)n[nH]2)c1` [Compound 379]: the EC50 was > 19 µM.

For the molecule `COc1ccc(OC)c(-c2nc(-c3nccc4ccccc34)n[nH]2)c1` [Compound 380], the concentration for a half-maximal effect (EC50) was > 19 µM.

Turning to `Oc1ccc(O)c(-c2nc(-c3nccc4ccccc34)n[nH]2)c1` [Compound 381, 4-Hydroxy-2-(5-isoquinolin-1-yl-2H-[1,2,4]triazol-3-yl)-phenol], the half-maximal effective concentration (EC50) came out at 8.5 µM.

As to `COc1cccc(-c2nc(-c3nccc4ccccc34)n[nH]2)c1` [Compound 382], the concentration giving a half-maximal response (EC50) is > 19 µM.

`COc1ccc(F)c(-c2nc(-c3nccc4ccccc34)n[nH]2)c1` [Compound 383]: the 50% effective concentration (EC50) is > 19 µM.

On to `Oc1ccc2ccccc2c1-c1nc(-c2nccc3ccccc23)n[nH]1` [Compound 385, 1-(5-isoquinolin-1-yl-2H-[1,2,4]triazol-3-yl)-naphthalen-2-ol], for which the EC50 was > 19 µM.

With `Oc1ccc(O)c(-c2nc(-c3ccccn3)n[nH]2)c1` [Compound 386, 4-Hydroxy-2-(5-pyridin-2-yl-2H-[1,2,4]triazol-3-yl)-phenol], the EC50 is > 19 µM.

`COc1cccc(-c2nc(-c3ccccn3)n[nH]2)c1` [Compound 387, 2-[5-(3-Methoxy-phenyl)-1H-[1,2,4]triazol-3-yl]-pyridine]: the EC50 was > 19 µM.

For the molecule `COc1ccc(F)c(-c2nc(-c3ccccn3)n[nH]2)c1` [Compound 388, 2-[5-(2-Fluoro-5-methoxy-phenyl)-1H-[1,2,4]triazol-3-yl]-pyridine], the EC50 was > 19 µM.

The values above are taken from US20050075375A1 (priority 2003, published 2005).
